Reference: patent US12161722B2, “Bifunctional heterocyclic compound having BTK degradation function via ubiquitin proteasome pathway, and use thereof” (KOREA RESEARCH INSTITUTE OF CHEMICAL TECHNOLOGY, priority 2021, dated 2024)

Legend:
WT BTK protein = molecular target: T1, WT BTK protein (Homo sapiens, UniProt Q06187); test: BTK protein degradation assay (Western blotting), WT BTK; format: cell-based; details: concentration range accounting for 50% degradation of WT BTK protein, TMD-8 or RAMOS cells, 24 hours
T1 construct: measured for intracellular BTK protein levels by Western blotting; endogenous in cells; host or cells: TMD-8 or RAMOS cells
T1 sequence (Q06187 whole entry): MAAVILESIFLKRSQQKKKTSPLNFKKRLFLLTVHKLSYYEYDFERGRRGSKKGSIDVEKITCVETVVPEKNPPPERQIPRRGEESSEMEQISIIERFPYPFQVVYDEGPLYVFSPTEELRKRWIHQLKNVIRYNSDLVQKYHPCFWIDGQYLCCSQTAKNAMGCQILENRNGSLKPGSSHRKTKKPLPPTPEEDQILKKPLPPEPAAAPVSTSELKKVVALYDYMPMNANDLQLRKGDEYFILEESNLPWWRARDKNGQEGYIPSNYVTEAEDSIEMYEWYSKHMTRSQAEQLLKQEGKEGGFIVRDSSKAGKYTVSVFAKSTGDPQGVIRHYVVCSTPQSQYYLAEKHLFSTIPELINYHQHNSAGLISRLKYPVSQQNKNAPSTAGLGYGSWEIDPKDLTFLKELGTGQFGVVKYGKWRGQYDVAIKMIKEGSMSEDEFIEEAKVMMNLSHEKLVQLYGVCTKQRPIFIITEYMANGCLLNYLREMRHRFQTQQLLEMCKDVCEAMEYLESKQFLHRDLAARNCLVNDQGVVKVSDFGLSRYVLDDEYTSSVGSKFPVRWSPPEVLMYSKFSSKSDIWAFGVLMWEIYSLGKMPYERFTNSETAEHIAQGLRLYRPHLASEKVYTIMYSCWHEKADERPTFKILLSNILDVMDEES
In short: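 BTK levels were read by Western blotting (GAPDH and β-actin normalisers) in RIPA lysates of TMD-8 cells exposed to compounds for 24 h at 1×10^6 cells/mL. Results scored in ranges of the concentration producing 50% loss of WT BTK.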

C481S BTK protein = molecular target: T2, C481S BTK protein (Homo sapiens, UniProt Q06187, C481S); test: BTK protein degradation assay (Western blotting), C481S BTK; format: cell-based; details: concentration range accounting for 50% degradation of C481S BTK protein, 293T BTK MUT (C481S) cells
T2 construct: expressed in transfected cells; host or cells: 293T BTK MUT (C481S) cells
T2 sequence (Q06187 whole entry C481S): as the sequence (Q06187 whole entry) above, with C481S counted along it
Experimental: TMD-8, RAMOS, or 293T BTK MUT (C481S) cells were treated with the synthesized compounds and measured for intracellular BTK protein levels by Western blotting. The protocol of the experiment using TMD-8 cells is as follows.
The 12-well plates were treated as follows. A 10 mM stock was 1/10 diluted in series with DMSO ([…]) to form final concentrations of 10, 1, 0.1, 0.01, 0.001, and 0.0001 mM. The compounds with such concentrations were applied to cells, followed by harvesting the cells 24 hours later. For a negative control, a 1/10 dilution of DMSO in the medium (3 mL DMSO+27 mL medium) was used.
The 1-mL cell culture in each well was passed many times through a pipette and then transferred into a 1.5-mL microtube before centrifugation (500 g, 5 min, 4° C.). The supernatant was discarded and the cell pellet was washed with PBS. After centrifugation (500 g, 5 min, 4° C.) again, the supernatant was discarded and the cell pellet was taken.
A lysis buffer was prepared as follows. RIPA buffer (Biosesang, RC2038-050-00)+0.5 mM PMSF (SIGMA, P7626)+1×Protease/Phosphatase Inhibitor (Cell signaling, 5872S) was added in an amount […] per well and left for 30 minutes on ice (vortexing at 0 and 30 minutes) before sonication (5 cycles of pulse for 10 seconds and rest for 30 seconds, 70% amplification). The supernatant obtained by centrifugation (15000 g, 15 min, 4° C.) was transferred into a new microtube. Cells in each well of 96-well plates were 1/2 diluted with the RIPA buffer and incubated at 37° C. for 30 minutes with […] of a 50:1 mixture of BCA reagents A and B in BCA Protein Assay Kit (iNtRON, 21071). After being cooled for 10 minutes, the 96-well plates were measured for absorbance at 562 nm on the BioTek, SYNERGY H1 microplate reader. Samples were prepared by protein quantification based on the absorbance measurements and then boiled at 70° C. for 10 minutes. The sample buffer used in the case was prepared by mixing a NuPAGE or a Bolt 4× sample buffer (Invitrogen) and its 10× sample reducing agent depending on the gel to be used, and protein dilution was made in a RIPI buffer.
The samples were loaded in the same amount into a NuPAGE or Bolt Bis-tris 4-12% gradient gel and allowed to run therein (200 V, 35 minutes). The separated proteins were transferred onto a […] NC membrane, using Trans-blot Turbo (BIO-RAD) (1.3 A constant, 25V limit, 15 minutes). The membrane was blocked at room temperature for 1 hour with skim milk or Intercept Blocking Buffer (LI-COR, 927-60001):0.1% TBST=1:1. The membrane was incubated with Anti BTK Rabbit (1:1,000 in 5% skim milk/0.2% TBST, size: 77 kDa, Cell signaling Technology) at 4° C. overnight O/N or at room temperature for 2 hours and with Anti GAPDH Rabbit (1:10,000 in 5% BSA/0.2% TBST, size: 36 kDa, GENETEX) and Anti β-actin mouse (1:10,000 in 5% BSA/0.2% TBST, RT, size: 43 kDa, GENETEX) at room temperature for 1 or 3 hours. Then, the membrane was washed three times with 0.5% TBST for 5 minutes each time before incubation with the second antibody Anti-Rabbit IgG (1:5,000 in 5% Skim milk/TBST, CST), IRDye® 800CW Goat anti-Rabbit IgG Secondary Antibody (1:10,000 in 5% skim/TBST, RT 45 min), or IRDye® 680RD Goat anti-Mouse IgG Secondary Antibody (1:10,000 in 5% skim/TBST, RT 45 min) for 45 minutes at room temperature in a rocker. The membrane was washed five times with 0.5% TBST for 5 minutes in each time, followed by detection with LI-COR, Odyssey. In this regard, the detection proceeded, as it was, for house-keeping genes while using SuperSignal West Pico PLUS Chemiluminescent Substrate or SuperSignal West femto Maximum Sensitivity Substrate for BTK detection.
According to the concentration ranges of compounds accounting for 50% degradation of WT BTK protein and C481S BTK protein, the activities are expressed as +++(0.0001-0.01 μM), ++(0.01-1 μM), +(1-10 μM), −(>10 μM), and NT (not tested). […]

Row | DC50 (WT BTK protein) [nM] | DC50 (C481S BTK protein) [µM] | SMILES
1 | 10 to 1000 | 0.01 to 1 | COCCOc1cc(C)c(Nc2nn(C)c3nc(Nc4ccc5c(c4)C(C)(C)N(C(=O)CCC(=O)Nc4ccc(OCCOCCOCCOCCNc6cccc7c6C(=O)N(C6CCC(=O)NC6=O)C7=O)cc4)CC5)ncc23)c(C)c1 (centres unmarked) [Compound 6, N-(4-(2-(2-(2-(2-((2-(2,6-Dioxopiperidin-3-yl)-1,3-dioxoisoindolin-4-yl)amino)ethoxy)ethoxy)ethoxy)ethoxy)phenyl)-4-(7-((3-((4-(2-methoxyethoxy)-2,6-dimethylphenyl)amino)-1-methyl-1H-pyrazolo[3,4-d]pyrimidin-6-yl)amino)-1,1-dimethyl-3,4-dihydroisoquinolin-2 (1H)-yl)-4-oxobutanamide]
2 | 0.1 to 10 | > 10 | Cc1cccc(C)c1Nc1nn(C)c2nc(Nc3ccc4c(c3)CN(C(=O)CCCCCCCCCCCNc3cccc5c3C(=O)N(C3CCC(=O)NC3=O)C5=O)CC4)ncc12 (centres unmarked) [Compound 7, 4-((12-(7-((3-((2,6-Dimethylphenyl)amino)-1-methyl-1H-pyrazolo[3,4-d]pyrimidin-6-yl)amino)-3,4-dihydroisoquinolin-2 (1H)-yl)-12-oxododecyl)amino)-2-(2,6-dioxopiperidin-3-yl)isoindoline-1,3-dione]
3 | 0.1 to 10 | 0.01 to 1 | Cc1cccc(C)c1Nc1nn(C)c2nc(Nc3ccc4c(c3)CN(C(=O)COCCOCCOCCOCCNc3ccc5c(c3)C(=O)N(C3CCC(=O)NC3=O)C5=O)CC4)ncc12 (centres unmarked) [Compound 8, 5-((14-(7-((3-((2,6-Dimethylphenyl)amino)-1-methyl-1H-pyrazolo[3,4-d]pyrimidin-6-yl)amino)-3,4-dihydroisoquinolin-2 (1H)-yl)-14-oxo-3,6,9,12-tetraoxatetradecyl)amino)-2-(2,6-dioxopiperidin-3-yl)isoindoline-1,3-dione]
4 | 10 to 1000 | > 10 | Cc1cccc(C)c1Nc1nn(C)c2nc(Nc3ccc4c(c3)CN(C(=O)COCCOCCOCCOCCNC(=O)COc3ccc5c(c3)C(=O)N(C3CCC(=O)NC3=O)C5=O)CC4)ncc12 (centres unmarked) [Compound 9, N-(14-(7-((3-((2,6-Dimethylphenyl)amino)-1-methyl-1H-pyrazolo[3,4-d]pyrimidin-6-yl)amino)-3,4-dihydroisoquinolin-2 (1H)-yl)-14-oxo-3,6,9,12-tetraoxatetradecyl)-2-((2-(2,6-dioxopiperidin-3-yl)-1,3-dioxoisoindolin-5-yl)oxy)acetamide]
5 | 10 to 1000 | > 10 | Cc1cccc(C)c1Nc1nn(C)c2nc(Nc3ccc4c(c3)CN(C(=O)COCCOCCOCCOCCNC(=O)CNc3cccc5c3C(=O)N(C3CCC(=O)NC3=O)C5=O)CC4)ncc12 (centres unmarked) [Compound 10, N-(14-(7-((3-((2,6-Dimethylphenyl)amino)-1-methyl-1H-pyrazolo[3,4-d]pyrimidin-6-yl)amino)-3,4-dihydroisoquinolin-2 (1H)-yl)-14-oxo-3,6,9,12-tetraoxatetradecyl)-2-((2-(2,6-dioxopiperidin-3-yl)-1,3-dioxoisoindolin-4-yl)amino)acetamide]
6 | 0.1 to 10 | > 10 | Cc1cccc(C)c1Nc1nn(C)c2nc(Nc3ccc4c(c3)CN(Cc3cn(CCOCCOCCNC(=O)CNc5cccc6c5C(=O)N(C5CCC(=O)NC5=O)C6=O)nn3)CC4)ncc12 (centres unmarked) [Compound 11]
7 | 10 to 1000 | > 10 | Cc1cccc(C)c1Nc1nn(C)c2nc(Nc3ccc4c(c3)CN(Cc3cn(CCOCCOCCNC(=O)CNc5ccc6c(c5)C(=O)N(C5CCC(=O)NC5=O)C6=O)nn3)CC4)ncc12 (centres unmarked) [Compound 12, N-(2-(2-(2-(4-((7-((3-((2,6-Dimethylphenyl)amino)-1-methyl-1H-pyrazolo[3,4-d]pyrimidin-6-yl)amino)-3,4-dihydroisoquinolin-2 (1H)-yl)methyl)-1H-1,2,3-triazol-1-yl)ethoxy)ethoxy)ethyl)-2-((2-(2,6-dioxopiperidin-3-yl)-1,3-dioxoisoindolin-5-yl)amino)acetamide]
8 | 0.1 to 10 | 1 to 10 | Cc1cccc(C)c1Nc1nn(C)c2nc(Nc3ccc4c(c3)CN(C(=O)COCCOCCOCCOCCNc3cccc5c3C(=O)N(C3CCC(=O)NC3=O)C5=O)CC4)ncc12 (centres unmarked) [Compound 13]
9 | 0.1 to 10 | > 10 | Cc1cccc(C)c1Nc1nn(C)c2nc(Nc3ccc4c(c3)CN(C(=O)CCOCCOCCOCCOCCNc3cccc5c3C(=O)N(C3CCC(=O)NC3=O)C5=O)CC4)ncc12 (centres unmarked) [Compound 14]
10 | 0.1 to 10 | 1 to 10 | Cc1cccc(C)c1Nc1nn(C)c2nc(Nc3ccc4c(c3)CN(C(=O)CCOCCOCCOCCOCCNc3ccc5c(c3)C(=O)N(C3CCC(=O)NC3=O)C5=O)CC4)ncc12 (centres unmarked) [Compound 15, 5-((15-(7-((3-((2,6-Dimethylphenyl)amino)-1-methyl-1H-pyrazolo[3,4-d]pyrimidin-6-yl)amino)-3,4-dihydroisoquinolin-2 (1H)-yl)-15-oxo-3,6,9,12-tetraoxapentadecyl)amino)-2-(2,6-dioxopiperidin-3-yl)isoindoline-1,3-dione]
11 | 0.1 to 10 | 1 to 10 | Cc1cccc(C)c1Nc1nn(C)c2nc(Nc3ccc4c(c3)CN(C(=O)CCOCCOCCOCCOCCNC(=O)COc3ccc5c(c3)C(=O)N(C3CCC(=O)NC3=O)C5=O)CC4)ncc12 (centres unmarked) [Compound 16, N-(15-(7-((3-((2,6-Dimethylphenyl)amino)-1-methyl-1H-pyrazolo[3,4-d]pyrimidin-6-yl)amino)-3,4-dihydroisoquinolin-2 (1H)-yl)-15-oxo-3,6,9,12-tetraoxapentadecyl)-2-((2-(2,6-dioxopiperidin-3-yl)-1,3-dioxoisoindolin-5-yl)oxy)acetamide]
12 | 0.1 to 10 | > 10 | Cc1cccc(C)c1Nc1nn(C)c2nc(Nc3ccc4c(c3)CN(C(=O)CCOCCOCCOCCOCCNC(=O)COc3cccc5c3C(=O)N(C3CCC(=O)NC3=O)C5=O)CC4)ncc12 (centres unmarked) [Compound 17, N-(15-(7-((3-((2,6-Dimethylphenyl)amino)-1-methyl-1H-pyrazolo[3,4-d]pyrimidin-6-yl)amino)-3,4-dihydroisoquinolin-2 (1H)-yl)-15-oxo-3,6,9,12-tetraoxapentadecyl)-2-((2-(2,6-dioxopiperidin-3-yl)-1,3-dioxoisoindolin-4-yl)oxy)acetamide]
13 | 0.1 to 10 | > 10 | Cc1cccc(C)c1Nc1nn(C)c2nc(Nc3ccc4c(c3)CN(C(=O)CCOCCOCCOCCOCCNC(=O)CN3CCN(c5ccc6c(c5)C(=O)N(C5CCC(=O)NC5=O)C6=O)CC3)CC4)ncc12 (centres unmarked) [Compound 18]
